Consider 55 molecules from paper PMC9995496, “A screen for MeCP2-TBL1 interaction inhibitors using a luminescence-based assay” (Scientific Reports, 2023).

Structures can show the parent of a compound that is named as a salt. Where two headings read alike, the source gives them in different places. Numbered stars: 1 amine (or outer) side, 2 acyl side, 3 side chain; on linkers, the order of the positions; unused ones are H or OH. Bridge positions count the residues as written; N and C are the ends. Square brackets hold non-standard residues; d marks the D form. Peptide text beside a SMILES is read from it. I, II: the chains in the order shown. Actinocin(9to1) = Cc1c2oc3c(C)ccc(C(=O)[*:1])c3nc-2c(C(=O)[*:2])c(N)c1=O; NMeV = CN[C@H](C(=O)O)C(C)C; Sar = CNCC(=O)O

The subject of the experiment is PRKACA-PRKAR2A interaction (SmBiT-PRKACA / LgBiT-PRKAR2A), protein kinase A. Further details: NanoLuc complementation counter-screen in cell extract, PRKACA with PRKAR2A, loss of luminescence, detects NanoLuc interference. The conditions noted are these: counter-screen for NanoLuc interference, 0.5 h, 20 µM, inhibitor.

In the case of `COC(=O)N[C@H](C(=O)N[C@@H](Cc1ccccc1)[C@@H](O)CN(Cc1ccc(-c2ccccn2)cc1)NC(=O)[C@@H](NC(=O)OC)C(C)(C)C)C(C)(C)C` [UM0141949:01, Atazanavir], the “Inh (PKA)” value (Inh (PKA)) stood at 2.849%.

As to `Cc1cnc(Nc2ccc(F)cc2Cl)nc1-c1c[nH]c(C(=O)N[C@H](CO)c2cccc(Cl)c2)c1` [UM0141646:01, VX-11e], the “Inh (PKA)” value came out at 14.62%.

Turning to `O=C(NCc1cccc(O)c1)c1cc2cc(F)ccc2[nH]1` [UM0142568:01, KX1-004], the “Inh (PKA)” value turned out to be 5.75%.

`Cc1nc(N)sc1-c1ccnc(Nc2ccc(N3CCOCC3)cc2)n1` [UM0141722:01, CYC116]: the “Inh (PKA)” value came out at 23.62%.

On to `Cc1cccc(-c2[nH]c(C(C)(C)C)nc2-c2ccc3c(c2)OCO3)n1` [UM0127976:02, SB-505124 hydrochloride], for which, where the note is “Inh (PKA)”, the “Inh (PKA)” value worked out at 12.14%.

As to `CC(C(=O)O)c1ccc2c(c1)[nH]c1ccc(Cl)cc12` (stereo not shown) [UM0142344:01, Carprofen], the “Inh (PKA)” value is 82.74%.

In the case of `O=C(O)/C=C/c1ccc(Cn2ccnc2)cc1` [UM0134313:02, Ozagrel HCl], the “Inh (PKA)” value (Inh (PKA)) is on record as -0.66%.

Turning to `CCNC(=O)Nc1ccc(-c2nc3c(c(N4CCOC[C@@H]4C)n2)CCN(C2COC2)C3)cc1` [UM0141407:01, GDC-0349], the “Inh (PKA)” value was determined as 3.779%.

For `O=S(=O)(c1cccc2c(I)cccc12)N1CCCNCC1` [UM0119920:03, ML-7 hydrochloride], the “Inh (PKA)” value is recorded as 17.89%.

Regarding `COc1cc(N2CCC(N3CCN(C)CC3)CC2)ccc1Nc1ncc(Cl)c(Nc2ccccc2P(C)(C)=O)n1` [UM0141393:01, AP26113], the “Inh (PKA)” value came to 6.926%.

As to `Cc1cc(N2CCOCC2)cc2[nH]c(-c3c(NC[C@@H](O)c4cccc(Cl)c4)cc[nH]c3=O)nc12` [UM0141451:01, BMS-536924], the “Inh (PKA)” value was found to be 41.39%.

For the molecule `COc1cc2c(NC3CCN(C(C)C)CC3)nc(N3CCC(F)(F)CC3)nc2cc1OCCCN1CCCC1` [UM0142799:01, UNC 0642], the “Inh (PKA)” value was found to be 0.7014%.

For the molecule `O=S(=O)(c1cccc2cnccc12)N1CCCNCC1` [UM0141906:01, Fasudil (HA-1077) HCl], the “Inh (PKA)” value amounted to 33.96%.

As to `CC(C)C[C@H](NC(=O)[C@H](Cc1ccccc1)NC(=O)c1cnccn1)B(O)O` [UM0135483:03, Bortezomib (PS-341)], the “Inh (PKA)” value came to 1.59%.

Turning to `CC1CNc2c(cccc2S(=O)(=O)N[C@@H](CCCNC(=N)N)C(=O)N2CC[C@@H](C)C[C@@H]2C(=O)O)C1` (stereo partly shown) [UM0142015:01, Argatroban], the “Inh (PKA)” value worked out at 1.414%.

On to `O=C(O)[C@]1(Cc2cccc(Nc3nccs3)n2)CC[C@@H](Oc2cccc(Cl)c2F)CC1` [UM0141717:01, MK-5108 (VX-689)], for which the “Inh (PKA)” value came to 44.53%.

For `CCCC[N+]1(C)[C@@H]2C[C@@H](OC(=O)[C@H](CO)c3ccccc3)C[C@H]1[C@@H]1O[C@@H]12` (stereo partly shown) [UM0142864:01, Scopolamine butylbromide], the “Inh (PKA)” value amounted to 0.502%.

With `COc1ccc(-c2cc3c(C)nc(N)nc3n([C@H]3CC[C@H](OCCO)CC3)c2=O)cn1` [UM0142064:01, PF-04691502], the “Inh (PKA)” value is listed as 7.804%.

On to `CN(C)c1ccc(/C=C2\C(=O)Nc3ccccc32)cc1` [UM0134350:02, SU 4312], for which the “Inh (PKA)” value is listed as 71.43%.

On to `CCc1cccc(CC)c1NC(=O)N1Cc2[nH]nc(NC(=O)c3ccc(N4CCN(C)CC4)cc3)c2C1` [UM0141719:01, PHA-680632], for which the “Inh (PKA)” value worked out at 7.851%.

On to `C#CCC(Cc1cnc2nc(N)nc(N)c2n1)c1ccc(C(=O)N[C@@H](CCC(=O)O)C(=O)O)cc1` (stereo partly shown) [UM0141802:01, Pralatrexate], for which the “Inh (PKA)” value amounted to 2.023%.

For `CCC(=O)N1CCN(c2ccc(-n3c(=O)ccc4cnc5ccc(-c6cnc7ccccc7c6)cc5c43)cc2C(F)(F)F)CC1` [UM0141981:01, Torin 1], the “Inh (PKA)” value was determined as 8.063%.

As to `O=C(O)Cc1cccc(OCCCN(Cc2cccc(C(F)(F)F)c2Cl)CC(c2ccccc2)c2ccccc2)c1` [UM0142045:01, GW3965 HCl], the “Inh (PKA)” value is recorded as 20.75%.

On to `O=C(Nc1cc(Cl)cc2c1[nH]c1cnccc12)c1cccnc1` [UM0142732:01, PS-1145], for which the “Inh (PKA)” value is listed as 3.261%.

Turning to `Cc1c(OCC(F)(F)F)ccnc1C[S@@+]([O-])c1nc2ccccc2[nH]1` [UM0118982:04, Dexlansoprazole], the “Inh (PKA)” value was 2.726%.

With `CCCS(=O)(=O)Nc1ccc(F)c(C(=O)c2c[nH]c3ncc(Cl)cc23)c1F` [UM0127949:04, PLX-4720], the “Inh (PKA)” value is reported as 29.68%.

Consider `NC(=O)[C@@H](CCC(F)(F)F)N(Cc1ccc(-c2ncon2)cc1F)S(=O)(=O)c1ccc(Cl)cc1` [UM0141668:01, BMS-708163 (Avagacestat)], for which the “Inh (PKA)” value was 25.28%.

As to `CCOC(=O)[C@H](CCc1ccccc1)N[C@@H](C)C(=O)N1CCC[C@H]1C(=O)O` [UM0132889:02, Enalapril Maleate], the “Inh (PKA)” value was -0.0661%.

For the molecule `C[C@H](NC(=O)c1sccc1OCc1ccc(Cl)cc1)c1ccccc1` [UM0142788:01, AS 1949490], the “Inh (PKA)” value worked out at 58.85%.

With `CC(C)C(=O)SCCCCCCC(=O)Nc1nc(-c2ccccc2)cs1` [UM0128574:02, NCH 51], the “Inh (PKA)” value is listed as 3.39%.

Regarding `Cc1csc(-c2nnc(Nc3ccc(Oc4ncccc4-c4ccnc(N)n4)cc3)c3ccccc23)c1` [UM0141716:01, AMG-900], the “Inh (PKA)” value was 63.02%.

Turning to `Cc1ncc(C[n+]2csc(CCO)c2C)c(N)n1` [UM0118406:03, Thiamine HCl (Vitamin B1)], the “Inh (PKA)” value is -1.554%.

Turning to `CC(C)Cc1ccc([C@@H](C)C(=O)NS(C)(=O)=O)cc1` [UM0141612:02, Reparixin L-lysine salt], the “Inh (PKA)” value (Inh (PKA)) was 7.24%.

As for `O=C(NCc1ccc(Oc2ccccc2)cc1)c1nc(-c2cc(Br)c(O)c(Br)c2)no1` [UM0142105:01, IOWH-032], the “Inh (PKA)” value worked out at 17.03%.

As for `CCCCS(=O)(=O)N[C@@H](Cc1ccc(OCCCCC2CCNCC2)cc1)C(=O)O` [UM0141561:03, Tirofiban hydrochloride monohydrate], the “Inh (PKA)” value stood at 1.888%.

Turning to `COc1ccc(C[C@H](N)C(=O)N[C@H]2[C@@H](O)[C@H](n3cnc4c(N(C)C)ncnc43)O[C@@H]2CO)cc1` [UM0142790:01, Puromycin dihydrochloride], the “Inh (PKA)” value is listed as -1.723%.

In the case of `CC(=O)[C@]1(O)Cc2c(O)c3c(c(O)c2[C@@H](O[C@H]2C[C@H](N)[C@H](O)[C@H](C)O2)C1)C(=O)c1ccccc1C3=O` [UM0141460:01, Idarubicin HCl], the “Inh (PKA)” value is listed as 47.84%.

As for `CNCCC(Oc1ccc(C(F)(F)F)cc1)c1ccccc1` (stereo not shown) [UM0118682:03, Fluoxetine HCl], the “Inh (PKA)” value was 5.529%.

Consider `COCCCOc1cc(C[C@@H](C[C@H](N)[C@@H](O)C[C@H](C(=O)NCC(C)(C)C(N)=O)C(C)C)C(C)C)ccc1OC` [UM0142448:01, Aliskiren Hemifumarate], for which the “Inh (PKA)” value is on record as 6.646%.

With `CCN(CC)CCCCNc1ncc2cc(-c3cc(OC)cc(OC)c3)c(NC(=O)NC(C)(C)C)nc2n1` [UM0131000:03, PD 173074], the “Inh (PKA)” value worked out at 0.205%.

As for `N#CSc1cc(SC#N)c(N)nc1N` [UM0141952:01, PR-619], the “Inh (PKA)” value amounted to 19.82%.

In the case of `C=CC(=O)Nc1ccc2ncnc(Nc3cccc(Br)c3)c2c1` [UM0141440:01, PD168393], the “Inh (PKA)” value came to 22.44%.

Consider `COc1ccc2[nH]cc(CCNC(C)=O)c2c1` [UM0118349:03, Melatonin], for which the “Inh (PKA)” value is -1.159%.

`C[C@@H]1CCN(C(=O)CC#N)C[C@@H]1N(C)c1ncnc2[nH]ccc12` [UM0141728:01, Tofacitinib (CP-690550) Citrate]: the “Inh (PKA)” value (Inh (PKA)) was -4.37%.

For `C#CCN(C)Cc1ccccc1` [UM0118374:03, Pargyline (hydrochloride)], the “Inh (PKA)” value was -0.007894%.

`Cc1cc(C)c(CNC(=O)c2cc(-c3ccc(CN4CCOCC4)cc3)cc3c2cnn3C2CCCC2)c(=O)[nH]1` [UM0141746:01, EPZ005687]: the “Inh (PKA)” value came to 11.88%.

As to `CCC(=O)NCC[C@@H]1CCc2ccc3c(c21)CCO3` [UM0121254:03, Ramelteon], the “Inh (PKA)” value is given as 6.005%.

Regarding `NC[C@@H]1O[C@H](O[C@H]2[C@@H](O)[C@H](O[C@@H]3[C@@H](O)[C@H](N)C[C@H](N)[C@H]3O[C@H]3O[C@H](CN)[C@@H](O)[C@H](O)[C@H]3N)O[C@@H]2CO)[C@H](N)[C@@H](O)[C@@H]1O` [UM0142371:01, Neomycin sulfate], the “Inh (PKA)” value worked out at 1.127%.

`NC(=O)c1ccccc1` [UM0119596:03, Benzamide]: the “Inh (PKA)” value was -0.9754%.

`CC(C)[C@H](N)C(=O)N1CCC[C@H]1B(O)O` [UM0142552:01, Talabostat mesylate]: the “Inh (PKA)” value is -1.148%.

Take `CN1C(=O)C(Cc2c[nH]c3ccccc23)NC1=S` (stereo not shown) [UM0141765:01, Necrostatin-1]: the “Inh (PKA)” value amounted to 5.445%.

Regarding `O=C1[C@H](Cc2ccc(O)cc2)N2C(=O)CCN(C(=O)NCc3ccccc3)[C@H]2CN1Cc1cccc2ccccc12` [UM0139430:02, ICG 001], the “Inh (PKA)” value was determined as 13.98%.

Regarding `Cc1c2oc3c(C)ccc(C(=O)N[C@@H]4C(=O)N[C@H](C(C)C)C(=O)N5CCC[C@H]5C(=O)N(C)CC(=O)N(C)[C@@H](C(C)C)C(=O)O[C@@H]4C)c3nc-2c(C(=O)N[C@@H]2C(=O)N[C@H](C(C)C)C(=O)N3CCC[C@H]3C(=O)N(C)CC(=O)N(C)[C@@H](C(C)C)C(=O)O[C@@H]2C)c(N)c1=O` [UM0141835:01, Actinomycin D] (I: T[dV]P[Sar][NMeV] / II: T[dV]P[Sar][NMeV]; ester I:1-I:C, II:1-II:C; linker I:N-II:N via Actinocin(9to1)), the “Inh (PKA)” value came out at 21.28%.

With `CCS(=O)(=O)c1cccc(-c2cc(C(=O)NC3CCN(C)CC3)c(C)c3[nH]c4ncc(C)cc4c23)c1` [UM0141721:01, TAK-901], the “Inh (PKA)” value came out at 28.15%.

For the molecule `COc1cccc(CCc2ccccc2OCC(CN(C)C)OC(=O)CCC(=O)O)c1` (stereo not shown) [UM0142521:01, Sarpogrelate hydrochloride], the “Inh (PKA)” value is 4.065%.
